From PubChem BioAssay AID1918931 (Molecular Pharmacology Branch, DTP, NCI, 2023)

Tested on: 138582-337-R-J1-PDC complex spheroid viability
Assay: Anticancer human tumor 138582-337-R-J1-PDC patient-derived Merkel cell tumor cell line growth inhibition
Settings: for IC50: curve of first compound; for viability, T/C: stronger effect = lower value; active = viability on the fitted dose curve at most 10% of control; inactive = the rest
Method in brief: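 Drug combinations with the LSD1 inhibitor iadademstat tested on tumor cells co-cultured as spheroids with endothelial cells and mesenchymal stem cells. Concentrations descended in half-log increments from clinical Cmax or 10 microM.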

[1] = second compound 0.1 µM, first compound 0.00316 µM
[2] = second compound 0.1 µM, first compound 0.01 µM
[3] = second compound 0.1 µM, first compound 0.0316 µM
[4] = second compound 0.1 µM, first compound 0.1 µM
[5] = second compound 0.1 µM, first compound 0.316 µM
[6] = second compound 0.1 µM, first compound 1 µM
[7] = second compound 0.316 µM, first compound 0.00316 µM
[8] = second compound 0.316 µM, first compound 0.01 µM
[9] = second compound 0.316 µM, first compound 0.0316 µM
[10] = second compound 0.316 µM, first compound 0.1 µM
[11] = second compound 0.316 µM, first compound 0.316 µM
[12] = second compound 0.316 µM, first compound 1 µM
[13] = second compound 1 µM, first compound 0.00316 µM
[14] = second compound 1 µM, first compound 0.01 µM
[15] = second compound 1 µM, first compound 0.0316 µM
[16] = second compound 1 µM, first compound 0.1 µM
[17] = second compound 1 µM, first compound 0.316 µM
[18] = second compound 1 µM, first compound 1 µM
[19] = second compound 3.16 µM, first compound 0.00316 µM
[20] = second compound 3.16 µM, first compound 0.01 µM
[21] = second compound 3.16 µM, first compound 0.0316 µM
[22] = second compound 3.16 µM, first compound 0.1 µM
[23] = second compound 3.16 µM, first compound 0.316 µM
[24] = second compound 3.16 µM, first compound 1 µM
[25] = second compound 10 µM, first compound 0.00316 µM
[26] = second compound 10 µM, first compound 0.01 µM
[27] = second compound 10 µM, first compound 0.0316 µM
[28] = second compound 10 µM, first compound 0.1 µM
[29] = second compound 10 µM, first compound 0.316 µM
[30] = second compound 10 µM, first compound 1 µM
[31] = second compound 0.1 µM, first compound 0.00949 µM
[32] = second compound 0.1 µM, first compound 0.03 µM
[33] = second compound 0.1 µM, first compound 0.0949 µM
[34] = second compound 0.1 µM, first compound 0.3 µM
[35] = second compound 0.316 µM, first compound 0.00949 µM
[36] = second compound 0.316 µM, first compound 0.03 µM
[37] = second compound 0.316 µM, first compound 0.0949 µM
[38] = second compound 0.316 µM, first compound 0.3 µM
[39] = second compound 1 µM, first compound 0.00949 µM
[40] = second compound 1 µM, first compound 0.03 µM
[41] = second compound 1 µM, first compound 0.0949 µM
[42] = second compound 1 µM, first compound 0.3 µM
[43] = second compound 3.16 µM, first compound 0.00949 µM
[44] = second compound 3.16 µM, first compound 0.03 µM
[45] = second compound 3.16 µM, first compound 0.0949 µM
[46] = second compound 3.16 µM, first compound 0.3 µM
[47] = second compound 10 µM, first compound 0.00949 µM
[48] = second compound 10 µM, first compound 0.03 µM
[49] = second compound 10 µM, first compound 0.0949 µM
[50] = second compound 10 µM, first compound 0.3 µM
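Also: spheroids exposed to agents for 7 days.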
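For viability, T/C in this document: 100% = DMSO vehicle control viability.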

CC1COCCN1c1cc(-c2ccnn2C)c2ccnc(-c3ccn[nH]3)c2n1 (stereo not given) + NC1CCC(NC2CC2c2ccccc2)CC1
332 nM: IC50 (second compound 3.16 µM) | IC50 (second compound 10 µM)
454 nM: IC50 (second compound 1 µM)
231 nM: IC50 (second compound 0.316 µM)
inactive: viability, T/C [1] 90.8% | viability, T/C [2] 91.8% | viability, T/C [3] 77.4% | viability, T/C [4] 75.8% | viability, T/C [5] 53.8% | viability, T/C [6] 36.7% | viability, T/C [7] 76.9% | viability, T/C [8] 104% | viability, T/C [9] 91.3% | viability, T/C [10] 65% | viability, T/C [11] 47.9% | viability, T/C [12] 38.2% | viability, T/C [13] 110% | viability, T/C [14] 101% | viability, T/C [15] 80% | viability, T/C [16] 70% | viability, T/C [17] 50.3% | viability, T/C [18] 44.7% | viability, T/C [19] 89% | viability, T/C [20] 77.9% | viability, T/C [21] 77.3% | viability, T/C [22] 69.2% | viability, T/C [23] 47.9% | viability, T/C [24] 40.1% | viability, T/C [25] 75.7% | viability, T/C [26] 73.4% | viability, T/C [27] 72.6% | viability, T/C [28] 67.4% | viability, T/C [29] 50.2% | viability, T/C [30] 42.6%
441 nM: IC50 (second compound 0.1 µM)

CC1COCCN1c1cc(C2(S(C)(=N)=O)CC2)nc(-c2ccnc3[nH]ccc23)n1 (stereo not given) + NC1CCC(NC2CC2c2ccccc2)CC1
inactive: viability, T/C [3] 107% | viability, T/C [4] 91.1% | viability, T/C [5] 83.2% | viability, T/C [6] 89.1% | viability, T/C (second compound 0.1 µM, first compound 3.16 µM) 63.4% | viability, T/C (second compound 0.1 µM, first compound 10 µM) 49.4% | viability, T/C [9] 105% | viability, T/C [10] 99% | viability, T/C [11] 86.9% | viability, T/C [12] 83% | viability, T/C (second compound 0.316 µM, first compound 3.16 µM) 64.1% | viability, T/C (second compound 0.316 µM, first compound 10 µM) 52.9% | viability, T/C [15] 88.1% | viability, T/C [16] 93.4% | viability, T/C [17] 100% | viability, T/C [18] 65.3% | viability, T/C (second compound 1 µM, first compound 3.16 µM) 59.8% | viability, T/C (second compound 1 µM, first compound 10 µM) 60.9% | viability, T/C [21] 92.6% | viability, T/C [22] 93.2% | viability, T/C [23] 98% | viability, T/C [24] 78.2% | viability, T/C (second compound 3.16 µM, first compound 3.16 µM) 63.1% | viability, T/C (second compound 3.16 µM, first compound 10 µM) 49.5% | viability, T/C [27] 87.3% | viability, T/C [28] 88.1% | viability, T/C [29] 71% | viability, T/C [30] 62.1% | viability, T/C (second compound 10 µM, first compound 3.16 µM) 46.1% | viability, T/C (second compound 10 µM, first compound 10 µM) 21.3%
2250 nM: IC50 (second compound 10 µM)
> 10000 nM: IC50 (second compound 0.1 µM) | IC50 (second compound 0.316 µM) | IC50 (second compound 1 µM) | IC50 (second compound 3.16 µM)

CCN(c1cc(-c2ccc(CN3CCOCC3)cc2)cc(C(=O)NCc2c(C)cc(C)[nH]c2=O)c1C)C1CCOCC1 + NC1CCC(NC2CC2c2ccccc2)CC1
> 3000 nM: IC50 (second compound 0.1 µM) | IC50 (second compound 0.316 µM) | IC50 (second compound 1 µM) | IC50 (second compound 3.16 µM) | IC50 (second compound 10 µM)
inactive: viability, T/C [31] 101% | viability, T/C [32] 87.9% | viability, T/C [33] 109% | viability, T/C [34] 92.4% | viability, T/C (second compound 0.1 µM, first compound 0.949 µM) 106% | viability, T/C (second compound 0.1 µM, first compound 3 µM) 111% | viability, T/C [35] 101% | viability, T/C [36] 101% | viability, T/C [37] 91% | viability, T/C [38] 95.3% | viability, T/C (second compound 0.316 µM, first compound 0.949 µM) 124% | viability, T/C (second compound 0.316 µM, first compound 3 µM) 105% | viability, T/C [39] 98.6% | viability, T/C [40] 106% | viability, T/C [41] 98.2% | viability, T/C [42] 90.3% | viability, T/C (second compound 1 µM, first compound 0.949 µM) 97.7% | viability, T/C (second compound 1 µM, first compound 3 µM) 103% | viability, T/C [43] 99.2% | viability, T/C [44] 103% | viability, T/C [45] 90.6% | viability, T/C [46] 92.3% | viability, T/C (second compound 3.16 µM, first compound 0.949 µM) 110% | viability, T/C (second compound 3.16 µM, first compound 3 µM) 105% | viability, T/C [47] 88.9% | viability, T/C [48] 86.7% | viability, T/C [49] 82.2% | viability, T/C [50] 90.9% | viability, T/C (second compound 10 µM, first compound 0.949 µM) 84.9% | viability, T/C (second compound 10 µM, first compound 3 µM) 84.8%

Nc1ncn(C2CC(O)C(CO)S2)c(=O)n1 (stereo not given) + NC1CCC(NC2CC2c2ccccc2)CC1
> 300 nM: IC50 (second compound 0.1 µM) | IC50 (second compound 0.316 µM) | IC50 (second compound 1 µM) | IC50 (second compound 3.16 µM) | IC50 (second compound 10 µM)
inactive: viability, T/C (second compound 0.1 µM, first compound 0.000949 µM) 98.9% | viability, T/C (second compound 0.1 µM, first compound 0.003 µM) 105% | viability, T/C [31] 101% | viability, T/C [32] 102% | viability, T/C [33] 106% | viability, T/C [34] 93.5% | viability, T/C (second compound 0.316 µM, first compound 0.000949 µM) 95% | viability, T/C (second compound 0.316 µM, first compound 0.003 µM) 93.9% | viability, T/C [35] 96.4% | viability, T/C [36] 95.4% | viability, T/C [37] 94.5% | viability, T/C [38] 108% | viability, T/C (second compound 1 µM, first compound 0.000949 µM) 90.9% | viability, T/C (second compound 1 µM, first compound 0.003 µM) 103% | viability, T/C [39] 107% | viability, T/C [40] 87.8% | viability, T/C [41] 81% | viability, T/C [42] 100% | viability, T/C (second compound 3.16 µM, first compound 0.000949 µM) 89.2% | viability, T/C (second compound 3.16 µM, first compound 0.003 µM) 96% | viability, T/C [43] 88% | viability, T/C [44] 78.4% | viability, T/C [45] 93.5% | viability, T/C [46] 84.7% | viability, T/C (second compound 10 µM, first compound 0.000949 µM) 80.1% | viability, T/C (second compound 10 µM, first compound 0.003 µM) 80.4% | viability, T/C [47] 91.4% | viability, T/C [48] 87.5% | viability, T/C [49] 78.6% | viability, T/C [50] 85%

O=C(C=Cn1cnc(-c2cc(C(F)(F)F)cc(C(F)(F)F)c2)n1)NNc1cnccn1 + NC1CCC(NC2CC2c2ccccc2)CC1
9.48 nM: IC50 (second compound 0.316 µM)
6.26 nM: IC50 (second compound 3.16 µM)
inactive: viability, T/C [1] 73.5% | viability, T/C [2] 45.8% | viability, T/C [3] 21.6% | viability, T/C [4] 18.4% | viability, T/C [5] 22.6% | viability, T/C [6] 17.4% | viability, T/C [7] 67% | viability, T/C [8] 49.1% | viability, T/C [9] 21.2% | viability, T/C [10] 20.7% | viability, T/C [11] 30.3% | viability, T/C [12] 21.7% | viability, T/C [13] 82.5% | viability, T/C [14] 38.4% | viability, T/C [15] 21.4% | viability, T/C [16] 20.5% | viability, T/C [17] 21.6% | viability, T/C [18] 23.1% | viability, T/C [19] 61% | viability, T/C [20] 42.4% | viability, T/C [21] 19% | viability, T/C [22] 20.1% | viability, T/C [23] 22.8% | viability, T/C [24] 24.7% | viability, T/C [25] 75% | viability, T/C [26] 24.6% | viability, T/C [27] 11.9% | viability, T/C [28] 18% | viability, T/C [29] 24.5% | viability, T/C [30] 31.8%
7.39 nM: IC50 (second compound 1 µM)
8.4 nM: IC50 (second compound 0.1 µM)
5.57 nM: IC50 (second compound 10 µM)
